The numbers were not newly measured in patent publication US20090270438A1, “Novel compositions and formulations” (priority 2006, published 2009), which cites them from elsewhere.

The structures appear in SMILES notation.

For this data set the following is noted: Pharmaceutical Codex.

Usually pKa stands for the negative logarithm of the acid dissociation constant. `COC12CCC3(CC1C(C)(O)C(C)(C)C)C1Cc4ccc(O)c5c4C3(CCN1CC1CC1)C2O5` (stereo not shown) [buprenorphine, Buprenorphine]: the pKa is 8.5.
